In paper PMC9977398, “Next-generation membrane-active glycopeptide antibiotics that also inhibit bacterial cell division” (Chemical Science, 2023):

Tests used:
[1] = test system: B. subtilis 1981 GFP-MinD; experiment: GFP-MinD localization; assay type: cell-based; conditions: treatment at the PEC, 15 min
Excerpt: MinD is a peripheral membrane protein that localizes at the cell poles and is part of the cell division regulation machinery. It has been reported that treatment with membrane-depolarizing agents like valinomycin results in the delocalization of the protein which appears in irregularly distributed spots throughout the cell. Since the compounds depolarise the bacterial membrane, their effect on the localization of the GFP-tagged MinD protein of B. subtilis was investigated. […]
resuspended in prewarmed BMM media. 1:1 BAC light dye was then added to the bacterial suspension and incubated for 5 minutes. The fluorescence in the GFP and Texas red channels was then observed under the microscope. The experiments were performed three times independently and the images are representative of results from three independent experiments.
B. subtilis 1981 GFP-MinD was cultured overnight in BMM.8 Cells were then inoculated in xylose containing BMM instead of glucose to an OD500 of 0.1 to induce expression of the GFP-MinD fusion protein. […]
About 6 μl of sample was immobilized on 1% agarose pad . DIC and fluorescence images were obtained at different time intervals using Nikon Eclipse Ti Microscope equipped with Nikon DS-U3 camera through Plan Apo 100×/1.40 oil objective. […]

[2] = test system: MRSA ATCC33591; experiment: Neutropenic murine thigh infection model; assay type: in vivo, Balb/c mice; conditions: for bacterial load in thigh: 12 mg kg^−1 i.p. at 1 h and 13 h post-infection, 24 h, untreated 8 log CFU g^−1
Method: The in vitro activity, low toxicity, and stability in plasma and liver homogenate, supported the potential of VanQAmC10 as a candidate for the treatment of bacterial infections. The efficacy of VanQAmC10 (8) against MRSA was tested in a neutropenic mouse thigh infection model. Infection was established by injecting them with 5 × 10^5 CFU of MRSA in the thigh. 1 h and 13 h post-infection, mice were treated with 12 mg kg^−1 of vancomycin and VanQAmC10 administered intraperitoneally (Fig. 6B). The mice were sacrificed 24 h post-infection. […] In the untreated group, the bacterial load increased to 8 log CFU g^−1. […] However, treatment with VanQAmC10 reduced the bacterial load to 3.3 log CFU g^−1, which is a 1.5 log CFU g^−1 lower bacterial load than observed against vancomycin. […]
bacterial concentration was adjusted to ~ […] based on OD600. The process was repeated for 27 passages. The fold of MIC increased for test compounds were plotted against […]
Activity in blood plasma and liver homogenate
To examine the susceptibility of VanQAmC10 to serum proteases, the antibacterial activities was tested in the presence of 50% of plasma and liver homogenate. Briefly, 250 μL of VanQAmC10 was added into 250 μL of fresh human plasma and incubated at 37 °C. An aliquot of the samples 3 h and 24h post-incubation was diluted in 0.9% saline and the antibacterial activity (MIC) were determined against MRSA and VRE by following the same protocol as described above for the antibacterial assay.
The toxicity of the lead compound VanQAmC10 was tested in mice through various modes of administration and reported as the LD50 (LD = lethal dose). The LD50 is the dosage that kills 50% of the test population of mice. […]
The doses for administration, were given modified OECD guidelines. LD50 was determined using Spearman-Karber method. […]
Groups of four 6 to 8 week-old Balb/c specific-pathogen-free female mice were used (weight ~22 g) for the experiment. […] The bacterial titer was expressed as Log CFU/g of thigh weight and plotted in GraphPad Prism software. […]

SMILES	localization of GFP-MinD [1]	bacterial load in thigh [2]	lower bacterial load than observed against vancomycin ([2]; 12 mg kg^−1 i.p. twice)
CCCCCCCCCCNC(=O)C[N+](C)(C)CCCNC(=O)C1NC(=O)C2NC(=O)C(NC(=O)C3NC(=O)C(CC(N)=O)NC(=O)C(NC(=O)C(CC(C)C)NC)C(O)c4ccc(c(Cl)c4)Oc4cc3cc(c4OC3OC(CO)C(O)C(O)C3OC3CC(C)(N)C(O)C(C)O3)Oc3ccc(cc3Cl)C2O)c2ccc(O)c(c2)-c2c(O)cc(O)cc21 (centres unmarked) [VanQAmC10 (8)]	irregular distribution of GFP-labelled MinD across the cells	3.3 log CFU g^−1	1.5 log CFU g^−1
CN[C@H](CC(C)C)C(=O)N[C@H]1C(=O)N[C@@H](CC(N)=O)C(=O)N[C@H]2C(=O)N[C@H]3C(=O)N[C@H](C(=O)N[C@H](C(=O)O)c4cc(O)cc(O)c4-c4cc3ccc4O)[C@H](O)c3ccc(c(Cl)c3)Oc3cc2cc(c3O[C@@H]2O[C@H](CO)[C@@H](O)[C@H](O)[C@H]2O[C@H]2C[C@](C)(N)[C@H](O)[C@H](C)O2)Oc2ccc(cc2Cl)[C@H]1O [Vancomycin, reference compound]		4.8 log CFU g^−1	
CNC(CC(C)C)C(=O)NC1C(=O)NC(CC(N)=O)C(=O)NC2C(=O)NC3C(=O)NC(C(=O)NC(C(=O)NCCC[N+](C)(C)Cc4ccc(-c5ccccc5)cc4)c4cc(O)cc(O)c4-c4cc3ccc4O)C(O)c3ccc(c(Cl)c3)Oc3cc2cc(c3OC2OC(CO)C(O)C(O)C2OC2CC(C)(N)C(O)C(C)O2)Oc2ccc(cc2Cl)C1O (centres unmarked) [VanQbiph (4)]	irregular distribution of GFP-labelled MinD across the cells		
